In PubChem BioAssay (NCI):
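Briefly, cells in 96-well plates were exposed to five compound concentrations for 48 h, and endpoints were estimated by linear interpolation. Definition used: TGI = concentration required for complete inhibition of growth.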

Assays:
Assay in all cases: growth of human tumour cells (NCI), 48 h
[1] = test system: 786-0 renal
[2] = test system: A498 renal
[3] = test system: A549 NSCLC
[4] = test system: ACHN renal
[5] = test system: BT-549 breast
[6] = test system: CAKI-1 renal
[7] = test system: COLO 205 colon
[8] = test system: DU-145 prostate
[9] = test system: EKVX NSCLC
[10] = test system: HCC-2998 colon
[11] = test system: HCT-116 colon
[12] = test system: HCT-15 colon
[13] = test system: HOP-62 NSCLC
[14] = test system: HOP-92 NSCLC
[15] = test system: HS 578T breast
[16] = test system: HT29 colon
[17] = test system: IGROV1 ovarian
[18] = test system: K-562 leukemia
[19] = test system: KM12 colon
[20] = test system: LOX IMVI melanoma
[21] = test system: M14 melanoma
[22] = test system: MALME-3M melanoma
[23] = test system: MCF7 breast
[24] = test system: MDA-MB-231 breast
[25] = test system: MDA-MB-435
[26] = test system: MDA-N
[27] = test system: MOLT-4 leukemia
[28] = test system: NCI-H226 lung
[29] = test system: NCI-H23 lung
[30] = test system: NCI-H460 lung
[31] = test system: NCI-H522 lung
[32] = test system: NCI/ADR-RES ovarian
[33] = test system: OVCAR-3 ovarian
[34] = test system: OVCAR-4 ovarian
[35] = test system: OVCAR-5 ovarian
[36] = test system: OVCAR-8 ovarian
[37] = test system: PC-3 prostate
[38] = test system: RXF 393 renal
[39] = test system: SF-268 CNS
[40] = test system: SF-295 CNS
[41] = test system: SF-539 CNS
[42] = test system: SK-MEL-2 melanoma
[43] = test system: SK-MEL-28 melanoma
[44] = test system: SK-MEL-5 melanoma
[45] = test system: SK-OV-3 ovarian
[46] = test system: SN12C renal
[47] = test system: SNB-19 CNS
[48] = test system: SNB-75 CNS
[49] = test system: SR leukemia
[50] = test system: T-47D breast
[51] = test system: TK-10 renal
[52] = test system: U251 CNS
[53] = test system: UACC-257 melanoma
[54] = test system: UACC-62 melanoma
[55] = test system: UO-31 renal
[56] = test system: CCRF-CEM leukemia
[57] = test system: HL-60(TB) leukemia
[58] = test system: RPMI-8226 leukemia
[59] = test system: SW-620 colon

## C=C1C(=O)OC2CC1C(OC(=O)/C=C/c1ccccc1)C/C(C)=C/CC/C(C)=C/CCC2(C)O (stereo unspecified)
[1]
  TGI: 2.31 µM
[2]
  TGI: 3.68 µM
[3]
  TGI: 3.19 µM
[4]
  TGI: 3.08 µM
[5]
  TGI: 2.8 µM
[6]
  TGI: 2.78 µM
[7]
  TGI: > 19.9 µM
[8]
  TGI: 2.77 µM
[9]
  TGI: 3.66 µM
[10]
  TGI: 3.12 µM
[11]
  TGI: 2.38 µM
[12]
  TGI: 2.67 µM
[13]
  TGI: 3.23 µM
[14]
  TGI: 4.03 µM
[15]
  TGI: 5.94 µM
[16]
  TGI: 2.99 µM
[17]
  TGI: 3.07 µM
[18]
  TGI: > 100 µM
[19]
  TGI: 3.41 µM
[20]
  TGI: 2.61 µM
[21]
  TGI: 3.14 µM
[22]
  TGI: 4.02 µM
[23]
  TGI: 1.96 µM
[24]
  TGI: 5.39 µM
[25]
  TGI: 3.76 µM
[26]
  TGI: 2.67 µM
[27]
  TGI: > 39.8 µM
[28]
  TGI: 3.57 µM
[29]
  TGI: 4.91 µM
[30]
  TGI: 2.74 µM
[31]
  TGI: 1.63 µM
[32]
  TGI: 9.4 µM
[33]
  TGI: 2.87 µM
[34]
  TGI: 2.96 µM
[35]
  TGI: 3.19 µM
[36]
  TGI: 6.99 µM
[37]
  TGI: 3.22 µM
[38]
  TGI: 2.72 µM
[39]
  TGI: 3.81 µM
[40]
  TGI: 3.01 µM
[41]
  TGI: 2.83 µM
[42]
  TGI: 2.85 µM
[43]
  TGI: 15.6 µM
[44]
  TGI: 3.68 µM
[45]
  TGI: 5.46 µM
[46]
  TGI: 3.04 µM
[47]
  TGI: 3.51 µM
[48]
  TGI: 2.87 µM
[49]
  TGI: > 21.6 µM
[50]
  TGI: 18.4 µM
[51]
  TGI: 3.17 µM
[52]
  TGI: 4.28 µM
[53]
  TGI: 3.79 µM
[54]
  TGI: 4.51 µM
[55]
  TGI: 3 µM

## Nc1nc(N)nc(CCCCc2nc(N)nc(N)n2)n1
[1]
  TGI: > 100 µM
[2]
  TGI: > 100 µM
[3]
  TGI: > 100 µM
[4]
  TGI: > 100 µM
[5]
  TGI: > 100 µM
[6]
  TGI: > 100 µM
[56]
  TGI: > 100 µM
[7]
  TGI: > 100 µM
[8]
  TGI: > 100 µM
[9]
  TGI: > 100 µM
[11]
  TGI: > 100 µM
[12]
  TGI: > 100 µM
[57]
  TGI: > 100 µM
[13]
  TGI: > 100 µM
[14]
  TGI: > 100 µM
[15]
  TGI: > 100 µM
[16]
  TGI: > 100 µM
[17]
  TGI: > 100 µM
[18]
  TGI: > 100 µM
[19]
  TGI: > 100 µM
[20]
  TGI: > 100 µM
[21]
  TGI: > 100 µM
[22]
  TGI: > 100 µM
[23]
  TGI: > 100 µM
[24]
  TGI: > 100 µM
[25]
  TGI: > 100 µM
[26]
  TGI: > 100 µM
[27]
  TGI: > 100 µM
[28]
  TGI: > 100 µM
[29]
  TGI: > 100 µM
[30]
  TGI: > 100 µM
[31]
  TGI: > 100 µM
[32]
  TGI: > 100 µM
[33]
  TGI: > 100 µM
[34]
  TGI: > 100 µM
[35]
  TGI: > 100 µM
[36]
  TGI: > 100 µM
[37]
  TGI: > 100 µM
[58]
  TGI: > 100 µM
[38]
  TGI: > 100 µM
[39]
  TGI: > 100 µM
[40]
  TGI: > 100 µM
[41]
  TGI: > 100 µM
[42]
  TGI: > 100 µM
[43]
  TGI: > 100 µM
[44]
  TGI: > 100 µM
[45]
  TGI: > 100 µM
[46]
  TGI: > 100 µM
[47]
  TGI: > 100 µM
[48]
  TGI: > 100 µM
[49]
  TGI: > 100 µM
[59]
  TGI: > 100 µM
[50]
  TGI: > 100 µM
[51]
  TGI: > 100 µM
[52]
  TGI: > 100 µM
[53]
  TGI: > 100 µM
[54]
  TGI: > 100 µM
[55]
  TGI: > 100 µM

## COc1cc(C[C@@]2(C)[C@@H]3CCC[C@H](CO)[C@@]3(C)CC[C@@H]2C)c(Cl)c(OC)c1
[1]
  TGI: 29.1 µM
[3]
  TGI: 29.6 µM
[4]
  TGI: 29.4 µM
[5]
  TGI: 33.8 µM
[6]
  TGI: 31.1 µM
[56]
  TGI: > 100 µM
[7]
  TGI: 30.2 µM
[8]
  TGI: 30 µM
[9]
  TGI: 27.5 µM
[10]
  TGI: 29.8 µM
[11]
  TGI: 24.7 µM
[12]
  TGI: 34.1 µM
[57]
  TGI: 47.3 µM
[13]
  TGI: 31.6 µM
[14]
  TGI: 30.5 µM
[15]
  TGI: 47.5 µM
[16]
  TGI: 26 µM
[17]
  TGI: 29.1 µM
[18]
  TGI: 53 µM
[19]
  TGI: 37.8 µM
[20]
  TGI: 32.9 µM
[21]
  TGI: 36.8 µM
[22]
  TGI: 32 µM
[23]
  TGI: 29.8 µM
[24]
  TGI: 32.3 µM
[25]
  TGI: 27.1 µM
[26]
  TGI: 30.1 µM
[27]
  TGI: 44.6 µM
[28]
  TGI: 32.5 µM
[29]
  TGI: 37.2 µM
[30]
  TGI: 36.3 µM
[31]
  TGI: 28.9 µM
[32]
  TGI: 31.3 µM
[33]
  TGI: 28.8 µM
[34]
  TGI: 33.3 µM
[35]
  TGI: 32.9 µM
[36]
  TGI: 31.7 µM
[37]
  TGI: 27.2 µM
[58]
  TGI: 76.2 µM
[38]
  TGI: 24.7 µM
[39]
  TGI: 30.8 µM
[40]
  TGI: 29.9 µM
[41]
  TGI: 29.4 µM
[42]
  TGI: 33.5 µM
[43]
  TGI: 60.9 µM
[44]
  TGI: 31.8 µM
[45]
  TGI: 31.3 µM
[46]
  TGI: 30 µM
[47]
  TGI: 33.8 µM
[48]
  TGI: 31.9 µM
[49]
  TGI: 48.5 µM
[59]
  TGI: 84.6 µM
[50]
  TGI: 22.9 µM
[51]
  TGI: 35.1 µM
[52]
  TGI: 29 µM
[53]
  TGI: 35.2 µM
[54]
  TGI: 28.9 µM
[55]
  TGI: 31.5 µM
